Laboratory results: patent US7659284B2, “Thiazolopyridine kinase inhibitors” (Janssen Pharmaceutica NV, priority 2004, dated 2010)

Assays:
Format in all cases: biochemical
c-Src kinase (human) = target: T1, c-Src kinase (human) (Homo sapiens, UniProt P12931); experiment: c-Src Kinase Assay; settings: for IC50: human c-Src, 5 μM ATP; for inhibition at 1.6 µM: test concentration (2) 1.6 μM, read-out: c-SRC percent inhibition
T1 construct: purchased Upstate Biotechnology, Lake Placid, N.Y
Experimental: […] a 10× kinase buffer (80 mM MOPS at pH 7.0, 2 mM EDTA and 100 mM Magnesium Chloride), ATP (5 μM final from a 10 mM stock), a Cdc2 peptide KVEKIGEGTYGVVYK (100 μM final from a 2.5 mM stock), γ-^33P ATP (10 μCi/μL stock) and water (20 μL/well) was added to each well of a Streptavidin Flashplate.
Test compound in 100% DMSO (0.5 μL) was added to the appropriate wells. Diluted c-Src kinase (human) (Upstate Biotechnology, Lake Placid, N.Y.) (diluted in a buffer consisting of 20 mM MOPS at pH 7.0, 1 mM EDTA, β-mercaptoethanol (0.1%), Brij-35 (0.01%), glycerol (5%), and 1 mg/mL bovine serum albumin) (2.5 μL) was added to the wells to initiate the reactions. The reaction plates were incubated at 30° C. for 40 min. The reaction was terminated by the addition of a 3% phosphoric acid solution (5 μL). The reaction product (10 μL) was spotted onto a P30 filtermat and washed for 5 minutes in phosphoric acid (75 mM). The wash sequence was repeated two more times, followed with one final wash in methanol. The plates were then dried, sealed and read on the TopCount scintillation counter after adding 30 μL scintillation fluid.
The percent inhibitions and IC50 values were derived according to the procedure described in Example 52. For those compounds without an IC50, the percent inhibition results are shown at a test concentration of ^(1)1 μM or ^(2)1.6 μM.

EGFR = target: T2, EGFR (Homo sapiens, UniProt P00533); experiment: EGFR Kinase Assay (GST-EGFR, 33P-ATP, Streptavidin Flashplate); settings: for inhibition at 2 µM: test concentration of 2 μM, read-out: EGFR percent inhibition; for IC50: GST-EGFR intracellular portion, 5 μM ATP
T2 construct: started at nucleotide 2189 (corresponding to amino acid 667) and ended at the termination codon; made in house; host or cells: Sf9 insect cells (baculovirus)
T2 sequence (P00533 667-1210 limits assumed): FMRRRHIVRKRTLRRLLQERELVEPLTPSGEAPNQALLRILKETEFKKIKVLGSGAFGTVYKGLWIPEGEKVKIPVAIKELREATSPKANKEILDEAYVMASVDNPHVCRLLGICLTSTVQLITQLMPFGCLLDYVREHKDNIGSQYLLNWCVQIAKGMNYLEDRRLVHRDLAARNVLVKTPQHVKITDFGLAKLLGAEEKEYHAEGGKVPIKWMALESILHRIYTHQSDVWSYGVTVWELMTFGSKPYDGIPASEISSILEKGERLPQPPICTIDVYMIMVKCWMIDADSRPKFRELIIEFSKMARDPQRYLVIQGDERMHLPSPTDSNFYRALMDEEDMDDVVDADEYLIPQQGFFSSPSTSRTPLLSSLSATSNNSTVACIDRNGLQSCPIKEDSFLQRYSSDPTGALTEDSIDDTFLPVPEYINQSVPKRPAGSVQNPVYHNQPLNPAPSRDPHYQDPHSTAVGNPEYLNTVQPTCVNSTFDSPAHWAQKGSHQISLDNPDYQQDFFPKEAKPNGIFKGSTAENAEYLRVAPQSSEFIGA
Text: The EGFR kinase used was a fusion of Glutathione-S-Transferase (GST) and a PCR amplified intracellular portion of EGFR (NM_005228). The intracellular portion of EGFR started at nucleotide 2189 (corresponding to amino acid 667) and ended at the termination codon. The portion was PCR amplified with primers that added the lambda attB sequences to each end, recombined into an entry vector, then into a GST destination vector (as described in Gateway Technologies Manual by Invitrogen Corporation, Carlsbad, Calif.).
The destination vector was recombined in the DH10BAC strain of bacteria to produce a bacmid. The bacmid was transfected into Sf 9 cells and the supernatant containing the baculovirus was collected. The GSTEGFR protein was purified using large cultures of Sf 9 cells infected with stock virus. After an appropriate period of time, the cells were collected and lysed. The GSTEGFR was then purified from the lysate on Glutathione-Sepharose columns (as described by Amersham Biosciences, Buckinghamshire, United Kingdom).
The EGFR substrate was prepared by biotinylating polyGluTyr (128 mg) (Sigma, St. Louis, Mo.) in a 1×PBS buffer incubated together with a 12-fold molar excess of Sulfo-NHS-LC-Biotin on ice for at least 2 hrs. The free biotin was separated from the biotinylated polyGluTyr on a gel filtration column.
A mixture of a 10× kinase buffer (500 mM Tris at pH 8.0, 100 mM Magnesium Chloride and 1 mM Sodium Vanadate), DTT (1 mM final from 500 mM stock), ATP (5 μM final from 10 mM stock), biotinylated polyGluTyr (10 μg/μL stock), γ-^33P ATP (10 μCi/μL stock) and water was added to each well (90 μL/well) of a Streptavidin Flashplate (Perkin Elmer, Wellesley, Mass.).
Test compound in 100% DMSO (2 μL) was added to the appropriate wells. Diluted GSTEGFR (1:300 dilution in 50 mM Tris at pH 8.0 and 0.1% bovine serum albumin) (10 μL) was added to the wells to initiate the reactions.
The plates were incubated at 30° C. for 1 hr with shaking. The reacted contents were removed and the plates were sequentially washed three times with a 1×PBS stop buffer (300 μL without Magnesium and Calcium) and 100 mM EDTA. After the final wash, the same stop buffer (200 μL) was added to the wells. The plates were then sealed and read on the TopCount scintillation counter.
Test compounds were assayed in triplicate at 16 concentrations at half-log dilutions starting at 200 uM. A maximum and minimum signal for the assay was determined on each plate. The percent inhibition of a test compound was calculated accord to the formula
For a series of test concentrations, the IC50 was derived by graphing percent inhibition against the log of the concentrations tested for a given compound. For those compounds without an IC50, the percent inhibition results are shown at a test concentration of 2 μM.

HER-2 = target: T3, HER-2 (Homo sapiens, UniProt P04626); experiment: HER-2 Kinase Assay; settings: GST-HER2 kinase, 1 μM ATP
T3 construct: the nucleotides encoding amino acids 679 to 1255 of HER-2; HIS6 with thrombin site (N); purchased Proqinase (Freiburg, Germany)
T3 sequence (P04626 679-1255): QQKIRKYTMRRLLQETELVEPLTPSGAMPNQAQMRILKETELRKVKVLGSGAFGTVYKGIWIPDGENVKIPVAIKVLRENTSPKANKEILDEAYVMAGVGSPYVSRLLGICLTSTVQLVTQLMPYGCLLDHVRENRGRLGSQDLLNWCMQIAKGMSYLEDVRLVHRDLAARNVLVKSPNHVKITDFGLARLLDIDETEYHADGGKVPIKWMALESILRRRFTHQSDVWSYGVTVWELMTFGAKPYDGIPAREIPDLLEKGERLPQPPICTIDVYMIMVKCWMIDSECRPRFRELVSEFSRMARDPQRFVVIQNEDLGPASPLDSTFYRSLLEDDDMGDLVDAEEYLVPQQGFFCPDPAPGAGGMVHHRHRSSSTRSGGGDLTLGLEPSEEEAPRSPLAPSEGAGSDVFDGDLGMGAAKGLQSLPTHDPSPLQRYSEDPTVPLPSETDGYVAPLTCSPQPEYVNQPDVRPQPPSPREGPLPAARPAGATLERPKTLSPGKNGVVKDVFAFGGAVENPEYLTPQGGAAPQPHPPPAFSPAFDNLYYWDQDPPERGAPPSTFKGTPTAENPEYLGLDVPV
Experimental: The HER-2 kinase used was purified at Proqinase (Freiburg, Germany) from a construct that consisted of a fusion of GST (Glutathione-S-Transferase), HIS6-Thrombin and the nucleotides encoding amino acids 679 to 1255 of HER-2.
A mixture of a 10× kinase reaction buffer (600 mM Hepes at pH 7.5, 30 mM Magnesium Chloride, 0.03 mM Sodium Vanadate and 500 μg/mL PEG 20,000), DTT (1.2 mM final from a 10 mM stock), ATP (1 μM from a 10 mM stock), biotinylated polyGluTyr (1.5 ng/μL final from stock of 1 μg/μL prepared by Upstate Biotechnologies, Lake Placid, N.Y.), Manganese Chloride (3 mM final from a 1 M stock), γy-^33P-ATP (10 μCi/μL stock) and water (70 μL/well) was added to each well of a Streptavidin Flashplate (Cat. # SMP103, NEN, Boston, Mass.).
Test compound stock (1 μL) was added to the appropriate wells. Diluted GSTHER2 kinase (6.7 ng/μL diluted into 50 mM Tris-HCl at pH 8.0 and 0.1% bovine serum albumin) (30 μL) was added (total volume of 200 ng/well) to initiate the reactions.
The reaction plates were incubated at 30° C. for 1 hr. The reaction was terminated by aspirating the reaction mixture from the plate wells and washing the wells three times with a 1×PBS stop buffer (300 μL) and 100 mM EDTA. After the final wash, the same stop buffer (200 μL) was again added to the wells. The plates were then sealed and read on the TopCount scintillation counter.
The IC50 was derived according to the procedure described in Example 52. For those compounds without an IC50, the percent inhibition results are shown at a test concentration of 1 μM.

T1 sequence (P12931 whole entry): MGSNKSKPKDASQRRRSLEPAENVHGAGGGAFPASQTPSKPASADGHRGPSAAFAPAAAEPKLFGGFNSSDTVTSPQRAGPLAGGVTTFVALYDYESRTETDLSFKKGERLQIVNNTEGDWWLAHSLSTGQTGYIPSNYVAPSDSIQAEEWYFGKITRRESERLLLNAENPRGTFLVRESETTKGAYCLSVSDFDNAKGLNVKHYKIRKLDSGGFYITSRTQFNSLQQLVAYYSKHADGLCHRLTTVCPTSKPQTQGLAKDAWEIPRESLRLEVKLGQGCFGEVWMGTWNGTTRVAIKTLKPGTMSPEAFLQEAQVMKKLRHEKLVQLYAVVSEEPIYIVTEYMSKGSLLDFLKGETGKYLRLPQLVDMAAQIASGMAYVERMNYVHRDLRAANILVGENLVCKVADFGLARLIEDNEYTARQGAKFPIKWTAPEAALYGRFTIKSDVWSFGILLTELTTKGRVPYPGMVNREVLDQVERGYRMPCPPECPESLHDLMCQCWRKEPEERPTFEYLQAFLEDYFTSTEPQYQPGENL

Structure (SMILES)	IC50 (c-Src kinase (human))	inhibition at 2 µM (EGFR)	inhibition at 1.6 µM (c-Src kinase (human))	IC50 (EGFR)	IC50 (HER-2)
CN1CCCC(COc2ccc(Nc3nc4ncc(C#N)c(Oc5cccc(OC(F)(F)F)c5)c4s3)cc2)C1 (stereo not shown) [Cpd 37, 2-[4-(1-methyl-piperidin-3-ylmethoxy)-phenylamino]-7-(3-trifluoromethoxy-phenoxy)-thiazolo[4,5-b]pyridine-6-carbonitrile]	–	–	3%	7.21 µM	–
COc1ccc(Cl)c(Nc2c(C#N)cnc3nc(Nc4ccc(OCC5CCCN(C)C5)cc4)sc23)c1 (stereo not shown) [Cpd 35, 7-(2-chloro-5-methoxy-phenylamino)-2-[4-(1-methyl-piperidin-3-ylmethoxy)-phenylamino]-thiazolo[4,5-b]pyridine-6-carbonitrile]	–	–	11%	0.461 µM	–
CN1CCCC(COc2ccc(Nc3nc4ncc(C#N)c(Sc5ccc(F)cc5Cl)c4s3)cc2)C1 (stereo not shown) [Cpd 39, 7-(2-chloro-4-fluoro-phenylsulfanyl)-2-[4-(1-methyl-piperidin-3-ylmethoxy)-phenylamino]-thiazolo[4,5-b]pyridine-6-carbonitrile]	> 100 µM	–	–	3.26 µM	–
CN1CCCC(COc2ccc(Nc3nc4ncc(C#N)c(Oc5ccc(Cl)cc5Cl)c4s3)cc2)C1 (stereo not shown) [Cpd 36, 7-(2,4-dichloro-phenoxy)-2-[4-(1-methyl-piperidin-3-ylmethoxy)-phenylamino]-thiazolo[4,5-b]pyridine-6-carbonitrile]	–	–	4%	8.76 µM	–
CN1CCCC(COc2ccc(Nc3nc4ncc(C#N)c(Sc5cccc(Br)c5)c4s3)cc2)C1 (stereo not shown) [Cpd 38, 7-(3-bromo-phenylsulfanyl)-2-[4-(1-methyl-piperidin-3-ylmethoxy)-phenylamino]-thiazolo[4,5-b]pyridine-6-carbonitrile]	–	–	4%	2.2 µM	–
C#Cc1cccc(Nc2c(C#N)cnc3nc(Nc4ccc(CN(C)C)cc4)sc23)c1 [Cpd 10, 2-(4-dimethylaminomethyl-phenylamino)-7-(3-ethynyl-phenylamino)thiazolo[4,5-b]pyridine-6-carbonitrile]	–	–	–	0.0565 µM	10 µM
COc1cc(Nc2nc3ncc(C#N)c(Nc4c(Cl)ccc5c4OCO5)c3s2)ccc1OCC1CCCCO1 (stereo not shown) [Cpd 43, 7-(5-chloro-benzo[1,3]dioxol-4-ylamino)-2-[3-methoxy-4-(tetrahydro-pyran-2-ylmethoxy)-phenylamino]-thiazolo[4,5-b]pyridine-6-carbonitrile]	> 100 µM	4%	–	–	–
COCCN(CCOC)Cc1ccc(Nc2nc3ncc(C#N)c(Nc4ccc(F)c(Cl)c4)c3s2)cc1 [Cpd 4, 2-(4-{[bis-(2-methoxy-ethyl)-amino]-methyl}-phenylamino)-7-(3-chloro-4-fluoro-phenylamino)-thiazolo[4,5-b]pyridine-6-carbonitrile]	–	–	–	0.049 µM	–
N#Cc1cnc2nc(NCCN3CCOCC3)sc2c1Nc1cccc(Cl)c1 [Cpd 12, 7-(3-chloro-phenylamino)-2-(2-morpholin-4-yl-ethylamino)-thiazolo[4,5-b]pyridine-6-carbonitrile]	–	–	–	15.8 µM	–

Continued, values first:

IC50 (c-Src kinase (human))	inhibition at 2 µM (EGFR)	inhibition at 1.6 µM (c-Src kinase (human))	IC50 (EGFR)	IC50 (HER-2)	Structure (SMILES)
0.079 µM	44%	–	–	–	N#Cc1cnc2nc(Nc3ccc(CN4CCCCC4)cc3)sc2c1Nc1c(Cl)ccc2c1OCO2 [Cpd 41, 7-(5-chloro-benzo[1,3]dioxol-4-ylamino)-2-(4-piperidin-1-ylmethyl-phenylamino)-thiazolo[4,5-b]pyridine-6-carbonitrile]
0.126 µM	47%	–	–	–	N#Cc1cnc2nc(Nc3ccc(CNC[C@H]4CCCO4)cc3)sc2c1Nc1c(Cl)ccc2c1OCO2 [Cpd 44, 7-(5-chloro-benzo[1,3]dioxol-4-ylamino)-2-[4-({[(2R)-tetrahydro-furan-2-ylmethyl]-amino}-methyl)-phenylamino]-thiazolo[4,5-b]pyridine-6-carbonitrile]
2.39 µM	46%	–	–	–	CN1CCCC(COc2ccc(Nc3nc4ncc(C#N)c(Nc5c(Cl)ccc6c5OCO6)c4s3)cc2)C1 (stereo not shown) [Cpd 40, 7-(5-chloro-benzo[1,3]dioxol-4-ylamino)-2-[4-(1-methyl-piperidin-3-ylmethoxy)-phenylamino]-thiazolo[4,5-b]pyridine-6-carbonitrile]
0.145 µM	–	–	–	–	N#Cc1cnc2nc(Nc3ccc(CN4CCCC4)cc3)sc2c1Nc1c(Cl)ccc2c1OCO2 [Cpd 45, 7-(5-chloro-benzo[1,3]dioxol-4-ylamino)-2-(4-pyrrolidin-1-ylmethyl-phenylamino)-thiazolo[4,5-b]pyridine-6-carbonitrile]
0.389 µM	–	–	–	–	CN1CCN(Cc2ccc(Nc3nc4ncc(C#N)c(Nc5c(Cl)ccc6c5OCO6)c4s3)cc2)CC1 [Cpd 46, 7-(5-chloro-benzo[1,3]dioxol-4-ylamino)-2-[4-(4-methyl-piperazin-1-ylmethyl)-phenylamino]-thiazolo[4,5-b]pyridine-6-carbonitrile]
–	–	–	0.0399 µM	46 µM	N#Cc1cnc2nc(Nc3ccc(CN4CCCC4)cc3)sc2c1Nc1ccc(F)c(Cl)c1 [Cpd 17, 7-(3-chloro-4-fluoro-phenylamino)-2-(4-pyrrolidin-1-ylmethyl-phenylamino)-thiazolo[4,5-b]pyridine-6-carbonitrile]
1.38 µM	18%	–	–	–	COc1cc(Nc2nc3ncc(C#N)c(Nc4c(Cl)ccc5c4OCO5)c3s2)ccc1OCCN1CCOCC1 [Cpd 42, 7-(5-chloro-benzo[1,3]dioxol-4-ylamino)-2-[3-methoxy-4-(2-morpholin-4-yl-ethoxy)-phenylamino]-thiazolo[4,5-b]pyridine-6-carbonitrile]
